# Patent US20100055169A1, “CATIONIC LIPIDS AND USES THEREOF” (ABBOTT LABORATORIES, priority 2008, published 2010)
# Experiment: RiboGreen assay of siRNA encapsulation efficiency, in vitro formulations of Lipid-Based Particles
# Type: physicochemical
# Settings: in vitro formulation b: Cationic lipid/PEG-cholesterol/DSPC/Chol 45/10/15/30 wt %, lipid:siRNA 25:1
# Description: The mixing solution of cationic lipids, cholesterol, non-cationic lipids and PEG-lipids was prepared in ethanol (total concentration at 10 mg/mL). siSTABLE (purchased from ThermoFisher) (sense-5′ GGGGAAAGCUGGCAAGAUUUU-3′SEQ ID NO. 1, antisense-5′-AAUCUUGCCAGCUUUCCCCUU-3′ SEQ ID NO: 2) % stock solution was prepared in 10 mg/mL of solution by dissolving 10 mg siRNA in 1 mL of RNAse-free UltraPure Water. The calculated amount of siRNA solution was added to 1 mL of citrate buffer (pH 4.0, 20 mM), to provide an siRNA concentration of 0.2 mg/mL, and warmed to 60 C. The calculated amount of lipid solution was warmed to 60 C, transferred to a 0.5 mL syringe with 28½ gauge needle, and injected into the citrate buffer with stirring at 60 C. After 3 minutes, 3 mL of PBS solution at room temperature (pH 7.4) was added into the lipid mixture with stirring. The Lipid-Based Particle solution was cooled to room temperature.
# The siRNA concentrations were measured using Quanti-iT RiboGreen RNA reagent (Molecular Probes, (R11490)). Vesicle sizes were characterized by dynamic light scattering with a DynaPro™ Plate Reader (Wyatt Technology) in 96-well half-area UV plate (Coring) after diluting the formulation sample (20 μL) in phosphate buffered saline (80 μL) at a pH of about 7-8. A 1% agarose gel-based assay was used for analyzing nuclease degradation and protection. Encapsulation efficiency (EE) was calculated using data obtained from a RiboGreen assay.
# (§1) RNA concentration and encapsulation efficiency were determined using a Quant-iT® Ribogreen RNA reagent and kit available from Invitrogen. The siRNA was released from the Lipid-Based Particle using one of the following reagents: ethanol, Triton X-100, or phenol/chloroform. The siRNA concentration is quantified using fluorescent reading at 480 nm/520 nm.
row,% Encapsulation Efficiency,Compound
1,98.6%,"CCCCC/C=C\C/C=C\CCCCCCCCC1(CCCCCCC/C=C\C/C=C\CCCCC)OCC(CCN(CC)CC)O1 (stereo not drawn) [Example 32, N,N-diethyl-N-(2-{2-[(8Z,11Z)-heptadeca-8,11-dienyl]-2-[(9Z,12Z)-octadeca-9,12-dienyl]-1,3-dioxolan-4-yl}ethyl)amine]"
2,99%,"CCCCCCCC/C=C\CCCCCCCC(=O)OCC(CCN1CCCC1)OC(=O)CCCCCCC/C=C\CCCCCCCC (stereo not drawn) [Example 33, 1-{[(9Z)-octadec-9-enoyloxy]methyl}-3-pyrrolidin-1-ylpropyl (9Z)-octadec-9-enoate]"
3,99%,"CCCCCCCC/C=C\CCCCCCCCOCC(CCN1CCCC1)OCCCCCCCC/C=C\CCCCCCCC (stereo not drawn) [Example 34, 1-{3,4-bis[(9Z)-octadec-9-enyloxy]butyl}pyrrolidine]"
4,83.5%,"CCCCC/C=C\C/C=C\C/C=C\C/C=C\CCCC(=O)OCC(CCN1CCCC1)OC(=O)CCC/C=C\C/C=C\C/C=C\C/C=C\CCCCC (stereo not drawn) [Example 35, 1-{[(5Z,8Z,11Z,14Z)-icosa-5,8,11,14-tetraenoyloxy]methyl}-3-pyrrolidin-1-ylpropyl(5Z,8Z,11Z,14Z)-icosa-5,8,11,14-tetraenoate]"
5,99%,"CCCCC/C=C\C/C=C\CCCCCCCCOC[C@H](CCOC(=O)NCCCN1CCCC1)OCCCCCCCC/C=C\C/C=C\CCCCC [Example 36, (3S)-3,4-bis[(9Z,12Z)-octadeca-9,12-dienyloxy]butyl 3-pyrrolidin-1-ylpropylcarbamate]"
6,98.5%,"CCCCCCCCCCCCCCCCCCOCC(CCN1CCCC1)OCCCCCCCCCCCCCCCCCC (stereo not drawn) [Example 37, 1-[3,4-bis(octadecyloxy)butyl]pyrrolidine]"
7,99%,"CCCCCC/C=C/CCCCCCCCOCC(CCN1CCCC1)OCCCCCCCC/C=C/CCCCCC (stereo not drawn) [Example 39, 1-{3,4-bis[(9E)-hexadec-9-enyloxy]butyl}pyrrolidine]"
8,97%,"CCCCCCCC/C=C/CCCCCCCCOCC(CCN1CCCC1)OCCCCCCCC/C=C/CCCCCCCC (stereo not drawn) [Example 40, 1-{3,4-bis[(9E)-octadec-9-enyloxy]butyl}pyrrolidine]"
9,99%,"CCCCC/C=C/C/C=C/CCCCCCCCOCC(CCN1CCCC1)OCCCCCCCC/C=C/C/C=C/CCCCC (stereo not drawn) [Example 41, 1-{3,4-bis[(9E,12E)-octadeca-9,12-dienyloxy]butyl}pyrrolidine]"
10,98%,"CC/C=C\C/C=C\C/C=C\CCCCCCCCOCC(CCN1CCCC1)OCCCCCCCC/C=C\C/C=C\C/C=C\CC (stereo not drawn) [Example 42, 1-{3,4-bis[(9Z,12Z,15Z)-octadeca-9,12,15-trienyloxy]butyl}pyrrolidine]"
11,96.5%,"CCCCC/C=C\C/C=C\CCCCCCCCOC[C@H](CCNC(=O)CCN(CC)CC)OCCCCCCCC/C=C\C/C=C\CCCCC [Example 43, N^1-{(3S)-3,4-bis[(9Z,12Z)-octadeca-9,12-dienyloxy]butyl}-N^3,N^3-diethyl-beta-alaninamide]"
12,98%,"CCCCC/C=C\C/C=C\CCCCCCCCOCC(CCNCCCn1ccnc1)OCCCCCCCC/C=C\C/C=C\CCCCC (stereo not drawn) [Example 44, N-{3,4-bis[(9Z,12Z)-octadeca-9,12-dienyloxy]butyl}-N-[3-(1H-imidazol-1-yl)propyl]amine]"
13,99%,"CCCCC/C=C\C/C=C\CCCCCCCCOCC(CCN(C)CCCN(C)C)OCCCCCCCC/C=C\C/C=C\CCCCC (stereo not drawn) [Example 45, N-{3,4-bis[(9Z,12Z)-octadeca-9,12-dienyloxy]butyl}-N,N′,N′-trimethylpropane-1,3-diamine]"
14,98%,"CCCCC/C=C\C/C=C\CCCCCCCCOCC(CCN1CCC(n2ccnc2)C1)OCCCCCCCC/C=C\C/C=C\CCCCC (stereo not drawn) [Example 46, 1-(1-{3,4-bis[(9Z,12Z)-octadeca-9,12-dienyloxy]butyl}pyrrolidin-3-yl)-1H-imidazole]"
15,99%,"CCCCC/C=C\C/C=C\CCCCCCCCOCC(CCNCCCN1CCCC1)OCCCCCCCC/C=C\C/C=C\CCCCC (stereo not drawn) [Example 47, N-{3,4-bis[(9Z,12Z)-octadeca-9,12-dienyloxy]butyl}-N-(3-pyrrolidin-1-ylpropyl)amine]"
16,99%,"CCCCC/C=C\C/C=C\CCCCCCCCOCC(CCNCCCN(C)C)OCCCCCCCC/C=C\C/C=C\CCCCC (stereo not drawn) [Example 48, N-{3,4-bis[(9Z,12Z)-octadeca-9,12-dienyloxy]butyl}-N′,N′-dimethylpropane-1,3-diamine]"
17,99%,"CCCCC/C=C\C/C=C\CCCCCCCCOCC(CCN1CCC1)OCCCCCCCC/C=C\C/C=C\CCCCC (stereo not drawn) [Example 49, 1-{3,4-bis[(9Z,12Z)-octadeca-9,12-dienyloxy]butyl}azetidine]"
18,99%,"CCCCC/C=C\C/C=C\CCCCCCCCOCC(CCN1CCCC1C)OCCCCCCCC/C=C\C/C=C\CCCCC (stereo not drawn) [Example 50, 1-{3,4-bis[(9Z,12Z)-octadeca-9,12-dienyloxy]butyl}-2-methylpyrrolidine]"
19,99%,"CCCCC/C=C\C/C=C\CCCCCCCCOCC(CCN1C(C)CCC1C)OCCCCCCCC/C=C\C/C=C\CCCCC (stereo not drawn) [Example 51, 1-{3,4-bis[(9Z,12Z)-octadeca-9,12-dienyloxy]butyl}-2,5-dimethylpyrrolidine]"

row,Compound,% Encapsulation Efficiency
1,"1-[3,4-bis(hexadecyloxy)butyl]pyrrolidine [Example 38]",99%
2,"CCCCC/C=C\C/C=C\CCCCCCCCOCC(CCOCCN(CC)CC)OCCCCCCCC/C=C\C/C=C\CCCCC (stereo not drawn) [Example 25, N-(2-{3,4-bis[(9Z,12Z)-octadeca-9,12-dienyloxy]butoxy}ethyl)-N,N-diethylamine]",96.1%
3,"CCCCC/C=C\C/C=C\CCCCCCCCOCC(CCOCCC1CCCN1C)OCCCCCCCC/C=C\C/C=C\CCCCC (stereo not drawn) [Example 26, 2-(2-{3,4-bis[(9Z,12Z)-octadeca-9,12-dienyloxy]butoxy}ethyl)-1-methylpyrrolidine]",99.9%
4,"CCCCC/C=C\C/C=C\CCCCCCCCOCC(CCOCCN1CC1)OCCCCCCCC/C=C\C/C=C\CCCCC (stereo not drawn) [Example 27, 1-(2-{3,4-bis[(9Z,12Z)-octadeca-9,12-dienyloxy]butoxy}ethyl)aziridine]",97%
5,"CCCCC/C=C\C/C=C\CCCCCCCCOCC(CCOCCN(C)C)OCCCCCCCC/C=C\C/C=C\CCCCC (stereo not drawn) [Example 29, N-(2-{3,4-bis[(9Z,12Z)-octadeca-9,12-dienyloxy]butoxy}ethyl)-N,N-dimethylamine]",96.4%

# Experiment: RiboGreen assay of siRNA encapsulation efficiency, in vivo formulations of Lipid-Based Particles
# Type: physicochemical
# Settings: in vivo formulation A: Cationic lipid/Example 73/DSPC/Chol 45/10/15/30 wt %, lipid:siRNA 25:1
# Description: as §1
# The lipid solution was prepared (10 mg/ml) by dissolving the lipid in 200 proof ethanol. The lipid mixture solution is prepared according to the above composition in Table 5.
# An siRNA (TetR_ODC—12, G.G.G.G.A.A.A.G.C.U.G.G.C.A.A.G.A.U.U.U.U SEQ ID NO: 1) (ThermoFisher) solution is prepared in a concentration of 10 mg/ml by dissolving 10 mg siRNA in 1 ml of DNAse/RNAse-free distilled water.
# (§2) A round bottom flask was submerged into a 65° C. water bath. Citrate buffer (37.5 ml) of pH 4.0 was pipetted into the flask. The solution was stirred by a magnetic stirring bar at a speed of 900 rpm. Both the pH 4.0 citrate buffer and the lipid solution were pre-warmed in the 65° C. water bath for about 3 minutes. A siRNA solution (0.5 ml) was pipetted into the pH 4.0 citrate buffer. The 12.5 ml lipid mixture solution was injected through a 27 gauge needle into the citrate buffer in about 30 seconds. The needle tip was inserted into the solution during the injection. The resulting solution was stirred for 5 minutes at a speed of 900 rpm. The flask was pulled up from the water bath and a 50 ml pH 7.4 PBS buffer was added into the flask. The final solution was further mixed at a speed of 900 rpm for 5 minutes. For the diafiltration process, a dialysis filter (Millipore, 100K, Cat#PXB100C50) was used to remove ethanol in the above solution. When the volume was reduced to 20 ml during the initial diafiltration, 20 ml of pH 7.4 PBS was added to the sample solution. The diafiltration was continued until the volume was reduced to 20 ml. The diafiltration process was repeated 4 times. The volume of the sample solution was reduced to about 12 ml and pH 7.4 PBS was added to make the final volume of 15 ml. The 15 ml solution was filtered sequentially through the 0.45 and 0.22 μm sterile PVDF membrane filters (Millipore) and immediately transferred into a sterile vial.
row,% Encapsulation Efficiency,Compound
1,83.6%,"CCCCC/C=C\C/C=C\CCCCCCCCOCC(CCN1CCOCC1)OCCCCCCCC/C=C\C/C=C\CCCCC (stereo not drawn) [Example 2, 4-{3,4-bis[(9Z,12Z)-octadeca-9,12-dienyloxy]butyl}morpholine]"

# Experiment: Particle sizing assay (Zetasizer Nano ZS), in vivo formulations
# Type: physicochemical
# Settings: in vivo formulation A: Cationic lipid/Example 73/DSPC/Chol 45/10/15/30 wt %, lipid:siRNA 25:1
# Description: as §2
# For measurements of particle sizes and size distributions (PDI), lipid-based particles were prepared as described above. The particle solution (60 μL) was pipetted into a disposable cuvette (UVette, Eppendorf, cat#952010051) and measured in the “General Purpose” mode. Attenuator and position were optimized by the device. Measurements were performed using a Zetasizer Nano ZS (Malvern Instruments) equipped with a 4 mW He—Ne laser at a wavelength of 633 nm at 25° C. Scattered light was detected at a 173° backward scattering angle. The viscosity and refractive index of water at 25° C. was used for data analysis with the Dispersion Technology Software 5.00 (Malvern Instruments).
Size,Size distribution (PDI),Compound
89 nm,(0.1),"CCCCC/C=C\C/C=C\CCCCCCCCOCC(CCN1CCOCC1)OCCCCCCCC/C=C\C/C=C\CCCCC (stereo not drawn) [Example 2, 4-{3,4-bis[(9Z,12Z)-octadeca-9,12-dienyloxy]butyl}morpholine]"
